Substitutions are numbered along the chain they refer to.
Assays:
[1] = biological target: T1, type I human arginase D181T (Homo sapiens, UniProt P05089, D181T); assay: Kinetic and inhibition studies, D181T mutant; format: biochemical; conditions: substrate arginine
T1 sequence (P05089 1-322 D181T): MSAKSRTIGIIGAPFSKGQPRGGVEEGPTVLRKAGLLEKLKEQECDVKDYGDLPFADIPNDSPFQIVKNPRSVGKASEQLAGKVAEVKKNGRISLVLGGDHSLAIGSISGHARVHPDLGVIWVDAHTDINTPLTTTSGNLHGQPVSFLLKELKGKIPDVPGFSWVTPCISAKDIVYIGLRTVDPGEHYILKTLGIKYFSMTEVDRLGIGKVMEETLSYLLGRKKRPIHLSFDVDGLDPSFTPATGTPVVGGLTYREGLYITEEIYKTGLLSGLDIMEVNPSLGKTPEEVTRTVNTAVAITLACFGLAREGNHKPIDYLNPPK
Experimental: (§1) Bacterial cultures were grown with shaking at 37 °C in Luria Broth media, in the presence of ampicillin (100 μg/mL). The wild-type and mutant human liver arginase cDNAs were directionally cloned into the pBluescript II KS(+) expression vector and then expressed in E. coli JM109, following induction with 1 mM isopropyl β-D-thiogalactopyranoside. The bacterial cells were disrupted by sonication on ice (5 × 30 s pulses), centrifuged for 20 min at 12,000× g, and the obtained supernatant was precipitated with ammonium sulfate (60% saturation). The pellet, collected by centrifugation at 12,000× g for 10 min, was re-suspended in buffer 5 mM Tris–HCl (pH 7.5) containing 2 mM MnCl2 and dialyzed for 6 h at 4 °C against the same buffer. After incubation with 5 mM MnCl2 for 10 min at 60 °C, the enzyme variants were purified as previously described. The purity of the enzymes was evaluated by SDS–PAGE stained by Coomassie blue and immunodetection using an anti- rat arginase I antibody.
(§2) The single, double, triple, and chimera variants of human arginase type I were obtained by PCR, using the QuickChange site-directed mutagenesis kit (Stratagene, La Jolla, CA, USA); the plasmid pBluescript II KS(+) containing the human liver arginase cDNA was used as template. To obtain the chimeric species of human arginase type I, serial mutations were made in each loop to be modified, using as template DNA the wild-type arginase gene or the previous done mutation, subcloned in the plasmid pBluescript II KS (+). Specifically, the residues present in the arginase structure were replaced by those corresponding to the agmatinase sequence of E. coli.
(§3) All assays were initiated by adding the enzyme to a previously equilibrated buffer with the substrate in solution (the concentrations of used substrates were between 0.2–3 fold the Km). Urea was determined by a colorimetric method with α-isonitrosopropiophenone. The protein concentrations were determined by the Bradford’s method, with bovine serum albumin as standard. Initial velocity and enzymatic inhibition experiments were performed in duplicate and repeated three times. The inhibitory patterns were initially determined by double reciprocal plots and re-plots of intercepts and slopes versus inhibitor concentrations. […] Velocities are expressed as μmol of urea/10 min.

[2] = biological target: T2, Chimera A1 (I129T/N130Y/T131A) of human arginase type I (Homo sapiens, UniProt P05089, I129T/N130Y/T131A); assay: Kinetic and inhibition studies, Chimera A1; format: biochemical; conditions: substrate arginine
T2 sequence (P05089 1-322 I129T/N130Y/T131A): T1 sequence (P05089 1-322 D181T) with I129T, N130Y, T131A, T181D
Experimental: as §1, §2, §3

[3] = biological target: T3, type I human arginase V182E (Homo sapiens, UniProt P05089, V182E); assay: Kinetic and inhibition studies, V182E mutant; format: biochemical; conditions: substrate arginine
T3 sequence (P05089 1-322 V182E): T1 sequence (P05089 1-322 D181T) with T181D, V182E
Experimental: as §1, §2, §3

[4] = biological target: T4, Chimera A2 (I129T/N130Y/T131A+∆ P132-T134) of human arginase type I (Homo sapiens, UniProt P05089, DEL129-131/I129T/L133Y/N130Y/P132T/T134A); assay: Kinetic and inhibition studies, Chimera A2; format: biochemical; conditions: substrate agmatine
T4 construct: made in house; host or cells: E. coli JM109
T4 sequence (P05089 with tags, fused parts or gaps DEL129-131/P132T/L133Y/T134A): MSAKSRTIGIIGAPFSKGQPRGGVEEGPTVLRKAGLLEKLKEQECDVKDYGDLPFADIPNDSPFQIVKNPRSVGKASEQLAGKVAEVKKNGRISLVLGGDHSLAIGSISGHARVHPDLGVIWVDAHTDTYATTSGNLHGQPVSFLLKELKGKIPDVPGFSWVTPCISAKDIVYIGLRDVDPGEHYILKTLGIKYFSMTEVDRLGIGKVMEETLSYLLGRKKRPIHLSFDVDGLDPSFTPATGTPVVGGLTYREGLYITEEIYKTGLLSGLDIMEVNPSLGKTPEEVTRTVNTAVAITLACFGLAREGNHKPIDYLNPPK
Experimental: as §1, §2, §3

[5] = biological target: T5, type I human arginase D181T/V182E (Homo sapiens, UniProt P05089, D181T/V182E); assay: Kinetic and inhibition studies, D181T/V182E double mutant; format: biochemical; conditions: substrate arginine
T5 construct: made in house; host or cells: E. coli JM109
T5 sequence (P05089 1-322 D181T/V182E): T1 sequence (P05089 1-322 D181T) with V182E
Experimental: as §1, §2, §3

[6] = biological target: T6, WT-arginase (human arginase type I) (Homo sapiens, UniProt P05089); assay: Kinetic and inhibition studies, wild-type human arginase type I; format: biochemical; conditions: for Inhibition type / Kis (Ki): substrate arginine
T6 construct: made in house; host or cells: E. coli JM109
T6 sequence (P05089 1-322): T1 sequence (P05089 1-322 D181T) with T181D
Experimental: as §1, §3

[7] = biological target: T7, type I human arginase D181T/V182E + ins F (Homo sapiens, UniProt P05089, D181E/D181T/INS180T/V182E/V182F); assay: Kinetic and inhibition studies, D181T/V182E + ins F; format: biochemical; conditions: substrate arginine
T7 sequence (P05089 with tags, fused parts or gaps INS180T/D181E/V182F): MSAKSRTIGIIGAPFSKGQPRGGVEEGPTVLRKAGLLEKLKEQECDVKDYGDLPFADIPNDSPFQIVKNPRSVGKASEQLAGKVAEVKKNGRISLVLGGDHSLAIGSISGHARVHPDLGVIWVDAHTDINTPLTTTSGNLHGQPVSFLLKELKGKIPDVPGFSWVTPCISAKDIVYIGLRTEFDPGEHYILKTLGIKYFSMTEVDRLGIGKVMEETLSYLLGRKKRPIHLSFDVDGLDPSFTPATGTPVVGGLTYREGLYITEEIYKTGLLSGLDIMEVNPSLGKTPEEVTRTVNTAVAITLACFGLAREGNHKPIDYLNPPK
Experimental: as §1, §2, §3

rat liver arginase = tested on: rat liver arginase; design: method as in PMID 8031143; conditions: substrate agmatine; cited from earlier work
[8] = biological target: T8, human arginase type I S137C (Homo sapiens, UniProt P05089, S137C); assay: Kinetic and inhibition studies, S137C mutant; format: biochemical; conditions: arginine 5 mM, pH 9.5; Figure 3A
T8 sequence (P05089 1-322 S137C): T1 sequence (P05089 1-322 D181T) with S137C, T181D
Experimental: as §1, §2, §3

[9] = biological target: T9, human arginase type I N139D (Homo sapiens, UniProt P05089, N139D); assay: Kinetic and inhibition studies, N139D mutant; format: biochemical; conditions: arginine 5 mM, pH 9.5; Figure 3A
T9 sequence (P05089 1-322 N139D): T1 sequence (P05089 1-322 D181T) with N139D, T181D
Experimental: as §1, §2, §3

[10] = biological target: T10, human arginase type I N130D (Homo sapiens, UniProt P05089, N130D); assay: Kinetic and inhibition studies, N130D mutant; format: biochemical; conditions: arginine 5 mM, pH 9.5; Figure 3A
T10 sequence (P05089 1-322 N130D): T1 sequence (P05089 1-322 D181T) with N130D, T181D
Experimental: as §1, §2, §3

E. coli agmatinase = biological target: T11, E. coli agmatinase (Escherichia coli, UniProt P60651); assay: Kinetic studies, E. coli agmatinase; format: biochemical; conditions: substrate = labelled compound; n/a = no activity with the substrate
T11 sequence (P60651 1-306): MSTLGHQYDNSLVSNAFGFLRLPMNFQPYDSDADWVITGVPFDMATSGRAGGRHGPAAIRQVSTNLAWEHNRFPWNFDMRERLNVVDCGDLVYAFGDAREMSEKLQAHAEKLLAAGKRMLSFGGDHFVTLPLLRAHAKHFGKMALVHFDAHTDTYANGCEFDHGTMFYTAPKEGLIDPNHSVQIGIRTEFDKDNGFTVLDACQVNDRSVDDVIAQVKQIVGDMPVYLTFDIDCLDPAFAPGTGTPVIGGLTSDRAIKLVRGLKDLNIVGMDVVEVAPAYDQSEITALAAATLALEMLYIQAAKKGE
Experimental: as §3

| SMILES | Inhibition type [1] | Kis [1] [mM] | Inhibition type [2] | Kis (Ki) [2] [mM] | Inhibition type [3] | Kis [3] [mM] | Inhibition type [4] | Kis [4] [mM] | Inhibition type [5] | Kis (Ki) [5] [mM] | Inhibition type [6] | Kis (Ki) ([6]; pH 9.5) [mM] | Inhibition type [7] | Kis [7] [mM] | kcat, times lower than for arginine (rat liver arginase) | Inhibition of arginase activity by agmatine [8] | Inhibition of arginase activity by agmatine [9] | Inhibition of arginase activity by agmatine [10] | Inhibition of arginase activity by agmatine ([6]; arginine 5 mM, pH 9.5, Figure 3A) | kcat (E. coli agmatinase) [s⁻¹] |
| --- | --- | --- | --- | --- | --- | --- | --- | --- | --- | --- | --- | --- | --- | --- | --- | --- | --- | --- | --- | --- |
| N=C(N)N [Guanidine, guanidine] | Competitive | 85 ± 10 | Competitive | 38 ± 6 | Competitive | 89 ± 12 | linear competitive inhibition | 40 ± 6 | Competitive | 80 ± 5 | Competitive | 56 ± 4 | Competitive | 70 ± 10 |  |  |  |  |  |  |
| NCCCC[C@H](N)C(=O)O [Lysine, lysine] |  |  |  |  |  |  |  |  | competitively inhibited | 42 |  | 5 |  |  |  |  |  |  |  |  |
| NCCCCN [Putrescine, putrescine] |  |  |  |  |  |  | competitive |  | competitively inhibited |  |  |  |  |  |  |  |  |  |  |  |
| N=C(N)NCCCCN [Agmatine, 1-amino-4-guanidinobutane] |  |  | Competitive | 27 ± 2 |  |  |  |  |  |  | Competitive | 42 ± 5 |  |  | approximately 5000 times | markedly sensitive | markedly sensitive | markedly sensitive | poorly inhibited | 120 ± 10 |

Reference: publication PMC9224512, “New Insights into the Determinants of Specificity in Human Type I Arginase: Generation of a Mutant That Is Only Active with Agmatine as Substrate” (International Journal of Molecular Sciences, 2022)
